Results published in patent publication US9561231B2 (AbbVie Inc., priority 2012, dated 2017).
Where two headings read alike, the source gives them in different places.

Legend:
[1] = test system: breast cancer cell line MX-1; test: MX-1 cell line proliferation assay (3-day); type: cell-based; details: MX-1 cells, Cell Titer Glo, read-out: Cellular proliferation: EC50
Experimental: The impact of compounds of the Examples on cancer cell proliferation was determined using the breast cancer cell line MX-1 (ATCC) in a 3-day proliferation assay. MX-1 cells were maintained in RPMI supplemented with 10% FBS at 37° C. and an atmosphere of 5% CO2. For compound testing, MX-1 cells were plated in 96-well black bottom plates at a density of 5000 cells/well in 90 μL of culture media and incubated at 37° overnight to allow cell adhesion and spreading. Compound dilution series were prepared in DMSO via a 3-fold serial dilution from 3 mM to 0.1 μM. The DMSO dilution series were then diluted 1:100 in phosphate buffered saline, and 10 μL of the resulted solution were added to the appropriate wells of the MX-1 cell plate. The final compound concentrations in the wells were 3, 1, 0.3, 0.1, 0.03, 0.01, 0.003, 0.001, 0.0003 and 0.0001 μM.
Luminescence readings from the Cell Titer Glo assay were normalized to the DMSO treated cells and analyzed using the GraphPad Prism software with sigmoidal curve fitting to obtain EC50s.

[2] = target: T1, first (BD1: amino acids K57-E168) bromodomain of BRD4 (Homo sapiens, UniProt O60885); test: TR-FRET bromodomain binding assay, BRD4 BD1; details: Ki calculated from IC50, probe Kd and probe concentration, read-out: TR-FRET Binding Ki: BRD4 (BDI_K57-E168)
T1 construct: His-tagged first (BD1: amino acids K57-E168)
How it was run: (§1)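 His-tagged BRD4 BD1 (K57-E168) or BD2 ([…]) displacing an Alexa647-labelled BET-inhibitor probe in 20 mM sodium phosphate pH 6.0, 50 mM NaCl, 1 mM EDTA, 0.01% Triton X-100, 1 mM DTT.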

[3] = target: T2, second (BD2: amino acids E352-E168) bromodomain of BRD4 (Homo sapiens, UniProt O60885); test: TR-FRET bromodomain binding assay, BRD4 BD2; details: Ki calculated from IC50, probe Kd and probe concentration, read-out: TR-FRET Binding Ki: BRD4 (BDII_E352-M457)
T2 construct: protocol
How it was run: as §1

[4] = TR-FRET assay protocol (A-G, compound concentration range)
[5] = Homo sapiens, MX1, 72 h incubation
[6] = TR-FRET assay protocol (D, E or G) per compound

Ki [2, 4] [nM]	Ki [3, 4] [nM]	Ki [2, 6] [nM]	Ki [3, 6] [nM]	Compound	other results
				1-(2-chloro-5-fluorophenyl)-N-[4-(2,4-difluorophenoxy)-3-(4-ethoxy-1-methyl-6-oxo-1,6-dihydropyridin-3-yl)phenyl]methanesulfonamide [Example 350]	EC50 ([1]; 72 h incubation): 1000 nM
1870	2050			Cn1nc(-c2ccccc2Oc2ccccc2)ccc1=O [Example 1, 2-methyl-6-(2-phenoxyphenyl)pyridazin-3(2H)-one]	EC50 [1, 5]: 20000 nM
11700	2860			Cn1nc(-c2ccccc2OCc2ccccc2)ccc1=O [Example 2, 6-[2-(benzyloxy)phenyl]-2-methylpyridazin-3(2H)-one]	EC50 [1, 5]: 13500 nM
	46.5			COc1cc(=O)n(C)nc1-c1cc(NS(=O)(=O)N(C)C)ccc1Oc1ccccc1 [Example 31, N′-[3-(4-methoxy-1-methyl-6-oxo-1,6-dihydropyridazin-3-yl)-4-phenoxyphenyl]-N,N-dimethylsulfuric diamide]	EC50 [1, 5]: 420 nM
> 2380	> 4080			Cn1cc(-c2cc(S(C)(=O)=O)ccc2NCC2CC2)c(OC(C)(C)C(C)(C)O)cc1=O [Example 341, 5-{2-[(cyclopropylmethyl)amino]-5-(methylsulfonyl)phenyl}-4-[(3-hydroxy-2,3-dimethylbutan-2-yl)oxy]-1-methylpyridin-2(1H)-one]	
196	63.1			CCOc1cc(=O)n(C)cc1-c1cc(NS(=O)(=O)c2ccc(Cl)cc2F)ccc1Oc1ccc(F)cc1F [Example 348, 4-chloro-N-[4-(2,4-difluorophenoxy)-3-(4-ethoxy-1-methyl-6-oxo-1,6-dihydropyridin-3-yl)phenyl]-2-fluorobenzenesulfonamide]	
1390	752			Cc1cccc(OCC2CC2)c1-c1ccc(=O)n(C)c1 [Example 356, 5-[2-(cyclopropylmethoxy)-6-methylphenyl]-1-methylpyridin-2(1H)-one]	
159	1420			CCS(=O)(=O)c1ccc(OCC2CC2)c(-c2cc(N)c(=O)n(C)c2)c1 [Example 357, 3-amino-5-[2-(cyclopropylmethoxy)-5-(ethylsulfonyl)phenyl]-1-methylpyridin-2(1H)-one]	
127	700			CCS(=O)(=O)c1ccc(O[C@H]2CC[C@@](C)(OC)CC2)c(-c2ccc(=O)n(C)c2)c1 [Example 360, 5-{5-(ethylsulfonyl)-2-[(cis-4-methoxy-4-methylcyclohexyl)oxy]phenyl}-1-methylpyridin-2(1H)-one]	
600	1170			CCS(=O)(=O)c1ccc(OCC2CC2)c(-c2cc(NC(C)=O)c(=O)n(C)c2)c1 [Example 361, N-{5-[2-(cyclopropylmethoxy)-5-(ethylsulfonyl)phenyl]-1-methyl-2-oxo-1,2-dihydropyridin-3-yl}acetamide]	
1350	> 4440			CCS(=O)(=O)Nc1ccc(OCC2CC2)c(-c2ccc(=O)n(C)c2)c1C [Example 365, N-[4-(cyclopropylmethoxy)-2-methyl-3-(1-methyl-6-oxo-1,6-dihydropyridin-3-yl)phenyl]ethanesulfonamide]	
629	570			CCS(=O)(=O)Nc1cc(-c2ccc(=O)n(C)c2)c(OCC2CC2)cc1C [Example 366, N-[4-(cyclopropylmethoxy)-2-methyl-5-(1-methyl-6-oxo-1,6-dihydropyridin-3-yl)phenyl]ethanesulfonamide]	
		317	276	CCS(=O)(=O)c1ccc(Oc2ccc(F)cc2F)c(-c2cn(C)c(=O)cc2Cl)c1 [Example 382, 4-chloro-5-[2-(2,4-difluorophenoxy)-5-(ethylsulfonyl)phenyl]-1-methylpyridin-2(1H)-one]	
		766	1420	CCOC(=O)N1CCC(Oc2ccc(NS(=O)(=O)CC)cc2-c2cn(C)c(=O)cc2OCC)CC1 [Example 388, ethyl 4-{2-(4-ethoxy-1-methyl-6-oxo-1,6-dihydropyridin-3-yl)-4-[(ethylsulfonyl)amino]phenoxy}piperidine-1-carboxylate]	
		1260	3990	CCOc1cc(=O)n(C)cc1-c1cc(NS(=O)(=O)CC)ccc1OC1CCN(C(C)=O)CC1 [Example 389, N-{4-[(1-acetylpiperidin-4-yl)oxy]-3-(4-ethoxy-1-methyl-6-oxo-1,6-dihydropyridin-3-yl)phenyl}ethanesulfonamide]	
		272	516	CCOc1cc(=O)n(C)cc1-c1cc(NS(=O)(=O)CC)ccc1OC1Cc2ccccc2C1 [Example 394, N-[4-(2,3-dihydro-1H-inden-2-yloxy)-3-(4-ethoxy-1-methyl-6-oxo-1,6-dihydropyridin-3-yl)phenyl]ethanesulfonamide]	
				CCS(=O)(=O)c1ccc(Oc2ccc(F)cc2F)c(-c2cc(=O)n(C)cc2OCC(F)(F)F)c1 [Example 398, 4-[2-(2,4-difluorophenoxy)-5-(ethylsulfonyl)phenyl]-1-methyl-5-(2,2,2-trifluoroethoxy)pyridin-2(1H)-one]	EC50 ([1]; 72 hours with compound): 450 nM
		203	30.9	CCS(=O)(=O)c1ccc(Oc2ccc(F)cc2F)c(-c2cn(C)c(=O)cc2OCC(F)(F)F)c1 [Example 398]	
		1550	567	CCOc1cc(=O)n(C)cc1-c1cc(N)ccc1Oc1ccc(F)cc1F [Example 406, 5-[5-amino-2-(2,4-difluorophenoxy)phenyl]-4-ethoxy-1-methylpyridin-2(1H)-one]	
		2010	1100	CCOc1cc(=O)n(C)cc1-c1cc(S(C)(=O)=O)ccc1NCc1ccc(F)cc1F [Example 409, 5-{2-[(2,4-difluorobenzyl)amino]-5-(methylsulfonyl)phenyl}-4-ethoxy-1-methylpyridin-2(1H)-one]	
		590	560	CCOc1cc(=O)n(C)cc1-c1cc(NS(=O)(=O)CC)ccc1OC1CCN(c2ccc(C(F)(F)F)cc2)CC1 [Example 410, N-[3-(4-ethoxy-1-methyl-6-oxo-1,6-dihydropyridin-3-yl)-4-({1-[4-(trifluoromethyl)phenyl]piperidin-4-yl}oxy)phenyl]ethanesulfonamide]	
		181	148	CCOc1cc(=O)n(C)cc1-c1cc(NC(=O)c2ccc(C(C)C)cc2)ccc1Oc1ccc(F)cc1F [Example 413, N-[4-(2,4-difluorophenoxy)-3-(4-ethoxy-1-methyl-6-oxo-1,6-dihydropyridin-3-yl)phenyl]-4-(propan-2-yl)benzamide]	
		61.4	38.9	CCOc1cc(=O)n(C)cc1-c1cc(NC(=O)c2cnc(C)cn2)ccc1Oc1ccc(F)cc1F [Example 414, N-[4-(2,4-difluorophenoxy)-3-(4-ethoxy-1-methyl-6-oxo-1,6-dihydropyridin-3-yl)phenyl]-5-methylpyrazine-2-carboxamide]	
		493	281	CCOc1cc(=O)n(C)cc1-c1cc(NS(=O)(=O)c2ccc(C(C)(C)C)cc2)ccc1Oc1ccc(F)cc1F [Example 416, 4-tert-butyl-N-[4-(2,4-difluorophenoxy)-3-(4-ethoxy-1-methyl-6-oxo-1,6-dihydropyridin-3-yl)phenyl]benzenesulfonamide]	
		259	57.1	CCOc1cc(=O)n(C)cc1-c1cc(NS(=O)(=O)c2ccc(Cl)cc2Cl)ccc1Oc1ccc(F)cc1F [Example 417, 2,4-dichloro-N-[4-(2,4-difluorophenoxy)-3-(4-ethoxy-1-methyl-6-oxo-1,6-dihydropyridin-3-yl)phenyl]benzenesulfonamide]	
		362	165	CCOc1cc(=O)n(C)cc1-c1cc(NS(=O)(=O)c2ccc3ccccc3c2)ccc1Oc1ccc(F)cc1F [Example 418, N-[4-(2,4-difluorophenoxy)-3-(4-ethoxy-1-methyl-6-oxo-1,6-dihydropyridin-3-yl)phenyl]naphthalene-2-sulfonamide]	
				N-[4-(2,4-difluorophenoxy)-3-(4-ethoxy-1-methyl-6-oxo-1,6-dihydropyridin-3-yl)phenyl]-1-phenylmethanesulfonamide [Example 311]	EC50 ([1]; 72 h incubation): 1000 nM
				N-{4-(4-cyanophenoxy)-3-[1-methyl-6-oxo-4-(2,2,2-trifluoroethoxy)-1,6-dihydropyridin-3-yl]phenyl}ethanesulfonamide [Example 374]	EC50 ([1]; 72 hours with compound): 76.1 nM
